Test results published in patent US8067430B1, “Anti-HIV activity of the opioid antagonist naloxone” (University of South Florida, priority 2003, dated 2011).
Counter-ions that a name gives are not always drawn.

Legend:
[1] = system: reverse transcriptase activity in HIV-MN infected Supt 1 cells; test: RT activity assay on lysates of HIV-MN infected, drug-treated Supt 1 cells; assay type: cell-based
Protocol: 200TCID-50 per milliliter (tissue culture infectious dose) of HIV-MN cell free virus was used to infect 500,000/milliliter of a human T cell line (called SupTI) in the presence (at a range of concentrations) or absence (control) of naloxone-HC1/or AZT. The TCID-50 is an amount of virus which will infect 50% of non-infected target cells. The virus+cells+drugs (naloxone or AZT) were incubated at 37 degrees Celsius in an atmosphere of 5% carbon dioxide for three days. Cells were lysed by using a detergent 1% Triton-X100. This preparation was frozen in liquid nitrogen and thawed at 37 degrees Celsius for three cycles. The preparation was vortexed vigorously for 20 seconds at the end of each cycle. Samples were then stored at −80 degrees Celsius until analysis. Total RNA from the samples were prepared by using the Tri-reagent assay and aliquoted and stored at −80 degrees Celsius until RT-PCR (reverse transcriptase-polymerase chain reaction) analysis.
A 96 well microplate was coated with 200 μl/well of a 40 mg/ml solution of polyA and incubated at room temperature overnight with rocking. […] The color reaction in the wells was measured spectrophotometrically. Color development was proportional to the amount of RT in the wells and quantitation was made based upon a standard curve of using recombinant RT. […]

[2] = target: T1, recombinant RT (Human immunodeficiency virus type 1 group M subtype B, UniProt P04585); test: Effect on recombinant RT; assay type: biochemical; details: different molar concentrations; protein not within the HIV viral lysate
T1 construct: effect of different molar concentrations of naloxone on recombinant RT

[3] = system: HIV gp41 transmembrane envelope glycoprotein RNA; test: RT-PCR of gp41 RNA from HIV infected target cells; assay type: cell-based, HIV-MN; details: different molar concentrations, hydrochloride
Description: Total RNA from the preparations described above was used as a template for the generation of complementary DNA (cDNA). This was accomplished through the use of commercial RT-PCR kits (Gibco/BRL/Life Technologies, Inc., Rockville, Md.). […]

[4] = system: HIV-1 gp120 (external envelope glycoprotein); test: Immunoblot (Western blot) of gp120 in lysates of HIV infected Supt 1 cells; assay type: cell-based, HIV-1MN
Protocol: The expression of the essential HIV coat protein gp120 is measured by this technique. Western Blot analysis of gp120 detected with a murine anti-gp120 monoclonal antibody from HIV-1 infected cells treated with naloxone or AZT. HIV-MN infected Supt 1 cells treated will different molar concentrations of naloxone or AZT. Cells were lysed at 3 days after infection of the cells with cell free HIV-1MN and 100 μg of the lysate was loaded onto SDS-PAGE, transferred onto a Hybond ECL membrane and detected with an anti-gp120 monoclonal antibody. VC=viral control (infected cells with no drug treatment).
200TCID-50 per milliliter (tissue culture infectious dose) of HIV-MN cell free virus was used to infect 500,000/milliliter of a human T cell line (called SupTI) in the presence (at a range of concentrations) or absence (control) of naloxone-HC1/or AZT. The TCID-50 is an amount of virus which will infect 50% of non-infected target cells. The virus+cells+drugs (naloxone or AZT) were incubated at 37 degrees Celsius in an atmosphere of 5% carbon dioxide for three days. Cells were lysed by using a detergent 1% Triton-X100. This preparation was frozen in liquid nitrogen and thawed at 37 degrees Celsius for three cycles. The preparation was vortexed vigorously for 20 seconds at the end of each cycle. Samples were then stored at −80 degrees Celsius until analysis. […]

[5] = system: GADPH; test: RT-PCR control: expression of constitutive enzyme GADPH; assay type: cell-based, human; details: housekeeping gene control in RT-PCR
Protocol: Total RNA from the preparations described above was used as a template for the generation of complementary DNA (cDNA). This was accomplished through the use of commercial RT-PCR kits (Gibco/BRL/Life Technologies, Inc., Rockville, Md.). The gene for the HIV gp41 transmembrane envelope glycoprotein was amplified from the RT products through the use of the following PCR cycling conditions: 94 degrees Celsius for 2 minutes followed by 52 degrees Celsius for 1 minutes then followed by 32 cycles at 94 degrees Celsius for 1 minutes, 52 degrees Celsius for 1 minutes, 72 degrees Celsius for […], then PCR extension was accomplished at 72 degrees Celsius for 10 minutes. The cycles were then ended by incubation at 4 degrees Celsius for 16 hours. […] (microliters) of PCR products were then loaded onto a 1.5% agarose gel containing 5 μg/ml of ethidium bromide. Bands in the gel with a size of 1.2 kb was considered to be gp41 based upon the primers used in the assay: Primer Sequences are as follows: Sense: 5 prime-[…]-3 prime (SEQ ID NO:1); Antisense 5 prime-[…]-3 prime (SEQ ID NO:2). In order to eliminate the possibility that the drug treatments could have an inhibitory effect on the RT used in the RT-PCR reaction rather than the HIV RT a constitutive (i.e. always expressed) enzyme called GADPH was used as a control. […]

For C=CCN1CC[C@]23c4c5ccc(O)c4O[C@H]2C(=O)CC[C@@]3(O)[C@H]1C5 [naloxone, naloxone hydrochloride], the “inhibition of RT activity in HIV infected cells compared with AZT” value ([1]; identical molar dose range of AZT) was “at least as effective as AZT”, the “RT activity in HIV-MN infected Supt 1 cells” value ([1]; treatment dose increasing from 10^-11 to 10^-4 M, 3 days, vs no drug control) was “RT activity decreases” and the “effect on recombinant RT” value [2] was “direct inhibitory effect on RT”. The “expression of RNA for envelope glycoprotein gp41 (RT-PCR)” value [3] was “inhibiting expression of RNA for the envelope glycoprotein gp41”, the “expression of RNA for envelope glycoprotein gp41 (RT-PCR)” value ([3]; listed as Naloxone) was “significantly depress expression” and the “expression of gp120 protein (Western blot)” value ([4]; HIV infected lymphocytes) was “significantly depress expression”. For the same compound, the “inhibition of HIV as measured by gp120 expression, compared with AZT” value ([4]; equivalent molar concentrations, cells lysed 3 days after infection) was “as effective, or more effective, than equivalent molar concentrations of AZT” and the “effect of drug treatment on expression of GADPH” value [5] was “No effect”.
